Calls of active or inactive are those of the source. The rule behind the calls is not given here.
Experiments:
U-251 = test: Antiproliferative activity against human U-251MG cells overexpressing DHX33 assessed as inhibition of cell growth measured after 48 hrs by CCK-8 assay; format: functional, cell-based; details: U-251, 48 h
[1] = Microsomal stability in human liver microsome assessed as intrinsic clearance; format: ADME; details: liver microsomes, read-out: CLH
A549 [2] = test: Downregulation of E2F1 mRNA expression in human A549 cells by SYBR dye based RT-PCR analysis; format: functional, cell-based
[3] = target: T1, ATP-dependent RNA helicase DHX33 (Mus musculus, UniProt Q80VY9); test: Inhibition of N-terminal/C-terminal 6x His-tagged wild type recombinant mouse DHX33 transformed in Escherichia coli BL21(DE3)pLysS cells
T1 sequence (Q80VY9 whole entry): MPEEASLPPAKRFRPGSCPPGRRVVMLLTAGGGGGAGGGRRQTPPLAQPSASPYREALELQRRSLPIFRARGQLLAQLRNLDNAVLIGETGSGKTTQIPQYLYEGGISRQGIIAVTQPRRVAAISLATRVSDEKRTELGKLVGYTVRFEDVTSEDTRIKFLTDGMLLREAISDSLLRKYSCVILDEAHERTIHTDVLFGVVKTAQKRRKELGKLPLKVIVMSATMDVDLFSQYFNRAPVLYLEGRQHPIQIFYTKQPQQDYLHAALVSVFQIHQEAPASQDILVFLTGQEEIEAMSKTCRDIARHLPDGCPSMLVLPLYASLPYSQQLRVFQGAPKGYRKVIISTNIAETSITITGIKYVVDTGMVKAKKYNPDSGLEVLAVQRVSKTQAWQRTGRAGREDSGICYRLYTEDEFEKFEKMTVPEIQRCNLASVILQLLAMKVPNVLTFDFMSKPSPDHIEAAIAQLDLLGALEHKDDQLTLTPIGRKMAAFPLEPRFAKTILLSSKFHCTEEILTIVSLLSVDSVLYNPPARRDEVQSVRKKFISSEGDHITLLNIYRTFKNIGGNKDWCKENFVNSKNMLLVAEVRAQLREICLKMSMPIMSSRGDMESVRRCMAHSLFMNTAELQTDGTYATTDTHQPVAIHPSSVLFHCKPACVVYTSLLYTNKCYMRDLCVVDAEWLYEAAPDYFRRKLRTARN

[4] = target: T2, Probable ATP-dependent RNA helicase DDX6 (Homo sapiens, UniProt P26196); test: Inhibition of N-terminal thioredoxin-tagged human recombinant DDX6 transformed in Escherichia coli BL21(DE3)pLysS cells
T2 sequence (P26196 whole entry): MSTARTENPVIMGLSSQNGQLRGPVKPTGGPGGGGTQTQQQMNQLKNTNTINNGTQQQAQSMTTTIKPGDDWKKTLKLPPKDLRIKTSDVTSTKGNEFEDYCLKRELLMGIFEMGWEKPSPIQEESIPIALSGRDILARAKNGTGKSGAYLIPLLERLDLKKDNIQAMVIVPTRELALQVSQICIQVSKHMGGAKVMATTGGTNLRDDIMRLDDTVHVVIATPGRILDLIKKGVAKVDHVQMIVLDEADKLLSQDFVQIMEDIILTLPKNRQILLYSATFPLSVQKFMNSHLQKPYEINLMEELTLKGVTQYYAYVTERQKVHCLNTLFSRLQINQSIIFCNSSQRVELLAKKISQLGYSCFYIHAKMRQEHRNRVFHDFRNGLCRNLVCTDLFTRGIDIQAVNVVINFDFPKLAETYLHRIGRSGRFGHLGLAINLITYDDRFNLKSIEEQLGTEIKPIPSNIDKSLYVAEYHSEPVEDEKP

A549 [5] = test: Downregulation of MCM2 mRNA expression in human A549 cells by SYBR dye based RT-PCR analysis; format: functional, cell-based
A549 [6] = test: Downregulation of MCM4 mRNA expression in human A549 cells by SYBR dye based RT-PCR analysis; format: functional, cell-based
A549 [7] = test: Downregulation of FEN1 mRNA expression in human A549 cells by SYBR dye based RT-PCR analysis; format: functional, cell-based
[8] = target: T3, Probable ATP-dependent RNA helicase DDX59 (Homo sapiens, UniProt Q5T1V6); test: Inhibition of C-terminal 6xHis-tagged human recombinant DDX59 transformed in Escherichia coli BL21(DE3)pLysS cells
T3 sequence (Q5T1V6 whole entry): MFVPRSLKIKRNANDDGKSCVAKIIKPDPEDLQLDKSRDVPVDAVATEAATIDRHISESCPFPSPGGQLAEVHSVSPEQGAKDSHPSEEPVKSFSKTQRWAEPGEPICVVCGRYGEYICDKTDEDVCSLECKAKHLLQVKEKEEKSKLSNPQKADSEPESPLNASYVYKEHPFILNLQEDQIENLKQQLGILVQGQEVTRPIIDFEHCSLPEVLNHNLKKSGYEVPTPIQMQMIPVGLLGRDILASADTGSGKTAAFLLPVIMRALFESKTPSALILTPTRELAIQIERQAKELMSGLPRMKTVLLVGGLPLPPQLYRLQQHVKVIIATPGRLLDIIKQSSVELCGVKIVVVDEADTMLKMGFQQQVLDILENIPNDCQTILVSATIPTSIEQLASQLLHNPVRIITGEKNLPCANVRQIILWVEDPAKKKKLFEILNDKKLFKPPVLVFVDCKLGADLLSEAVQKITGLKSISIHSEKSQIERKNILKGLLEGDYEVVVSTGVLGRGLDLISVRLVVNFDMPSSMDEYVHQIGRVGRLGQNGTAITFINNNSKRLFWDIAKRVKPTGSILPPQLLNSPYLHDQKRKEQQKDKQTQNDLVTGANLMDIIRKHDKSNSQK

[9] = target: T4, Putative pre-mRNA-splicing factor ATP-dependent RNA helicase DHX32 (Homo sapiens, UniProt Q7L7V1); test: Inhibition of N-terminal thioredoxin-tagged human recombinant DHX32 transformed in Escherichia coli BL21(DE3)pLysS cells
T4 sequence (Q7L7V1 whole entry): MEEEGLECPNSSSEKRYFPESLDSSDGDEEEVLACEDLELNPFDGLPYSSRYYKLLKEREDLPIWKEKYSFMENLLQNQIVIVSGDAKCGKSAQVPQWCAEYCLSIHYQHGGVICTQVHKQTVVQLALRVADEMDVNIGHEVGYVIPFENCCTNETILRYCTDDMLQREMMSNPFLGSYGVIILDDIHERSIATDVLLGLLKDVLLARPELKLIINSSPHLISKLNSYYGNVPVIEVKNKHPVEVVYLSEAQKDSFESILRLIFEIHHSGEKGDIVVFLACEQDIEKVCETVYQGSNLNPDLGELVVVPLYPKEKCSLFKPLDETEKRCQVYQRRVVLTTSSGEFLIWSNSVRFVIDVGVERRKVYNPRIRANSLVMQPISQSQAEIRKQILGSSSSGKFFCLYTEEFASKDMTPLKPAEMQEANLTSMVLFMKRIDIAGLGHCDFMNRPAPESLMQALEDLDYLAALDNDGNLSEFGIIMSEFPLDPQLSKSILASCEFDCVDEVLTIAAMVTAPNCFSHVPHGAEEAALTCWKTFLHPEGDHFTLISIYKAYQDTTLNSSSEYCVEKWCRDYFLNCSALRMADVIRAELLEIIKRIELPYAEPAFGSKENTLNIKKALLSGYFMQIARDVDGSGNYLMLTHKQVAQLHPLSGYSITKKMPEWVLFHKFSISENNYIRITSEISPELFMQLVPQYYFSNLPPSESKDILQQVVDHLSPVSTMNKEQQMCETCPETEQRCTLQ

A549 [10] = test: Downregulation of CyclinE2 mRNA expression in human A549 cells by SYBR dye based RT-PCR analysis; format: functional, cell-based
A549 [11] = test: Downregulation of MCM7 mRNA expression in human A549 cells by SYBR dye based RT-PCR analysis; format: functional, cell-based
A549 [12] = test: Downregulation of CyclinB2 mRNA expression in human A549 cells by SYBR dye based RT-PCR analysis; format: functional, cell-based
A549 [13] = test: Downregulation of MCM3 mRNA expression in human A549 cells by SYBR dye based RT-PCR analysis; format: functional, cell-based

Row | IC50 (U-251) | SMILES | other results
1 | 4.08 µM | COc1ccc2nc(/C(C#N)=C/c3cc(C)n(-c4oc(C)c(C)c4C#N)c3C)[nH]c2n1 | 
2 | 2.44 µM | Cc1ccc2nc(/C(C#N)=C/c3cc(C)n(-c4oc(C)c(C)c4C#N)c3C)[nH]c2c1 | 
3 | 0.02 µM | COc1cc2nc(/C(C#N)=C/c3cc(C)n(-c4sc(C)cc4C#N)c3C)[nH]c2cn1 | CLint scaled [1]: 187 mL/min/kg
4 | 1.54 µM | COc1cc2nc(/C(C#N)=C/c3cc(C)n(-c4oc(C)c(C)c4C#N)c3C)[nH]c2cc1OC | 
5 | 0.18 µM | COc1cc2nc(/C(C#N)=C/c3cc(C)n(-c4sc(C)cc4C(N)=O)c3C)[nH]c2cn1 | CLint scaled [1]: 140 mL/min/kg
6 | 0.03 µM | COc1cc2nc(/C(C#N)=C/c3cc(C)n(-c4sc(C)c(C)c4C#N)c3C)[nH]c2cn1 | 
7 | 0.07 µM | COc1ccc2nc(NC(=O)c3cc(C)n(-c4oc(C)nc4C#N)c3C)[nH]c2c1 | 
8 | 4.68 µM | COc1cncc2nc(/C(C#N)=C/c3cc(C)n(-c4sc(C)c(C)c4C#N)c3C)[nH]c12 | 
9 | 3.97 µM | COc1nccc2nc(/C(C#N)=C/c3cc(C)n(-c4sc(C)c(C)c4C#N)c3C)[nH]c12 | 
10 | 0.54 µM | COc1ccc2nc(/C(C#N)=C/c3cc(C)n(-c4oc(C)c(C)c4C#N)c3C)[nH]c2c1 | 
11 | 7.82 µM | Cc1oc(-n2c(C)cc(/C=C(\C#N)c3nc4ccccc4[nH]3)c2C)c(C#N)c1C | Activity (A549 [2]): Active; IC50 [3]: 0.52 µM; IC50 [4]: > 4 µM; Activity (A549 [5]): Active; Activity (A549 [6]): Active; Activity (A549 [7]): Active; IC50 [8]: > 5 µM; IC50 [9]: > 5 µM; Activity (A549 [10]): Active; Activity (A549 [11]): Active; Activity (A549 [12]): Active; Activity (A549 [13]): Active
12 | 3.2 µM | Cc1oc(-n2c(C)cc(/C=C(\C#N)c3nc4ccc(F)cc4[nH]3)c2C)c(C#N)c1C | 
13 | 0.07 µM | COc1cc2nc(/C(C#N)=C/c3cc(C)n(-c4oc(C)c(C)c4C#N)c3C)[nH]c2cn1 | 
14 | > 10 µM | COc1cccc2nc(/C(C#N)=C/c3cc(C)n(-c4oc(C)c(C)c4C#N)c3C)[nH]c12 | 
15 | 0.11 µM | COc1ccc2nc(/C(C#N)=C/c3cc(C)n(-c4sc(C)cc4C#N)c3C)[nH]c2c1 | CLint scaled [1]: 290 mL/min/kg

— ChEMBL document CHEMBL5390231, “Development of small molecule inhibitors targeting RNA helicase DHX33 as anti-cancer agents” (Bioorg Med Chem Lett, 2023)
